According to patent US20240294543A1, “CYCLOHEPTA-THIENO-DIAZEPINE DERIVATIVES AS GABA A GAMMA1 PAM” (Hoffmann-La Roche Inc., priority 2021, published 2024):
Read-outs that look alike come from different tables or passages of the source.

Key:
[1] = biological target: human GABAA α5β2γ1 receptor (Homo sapiens (Human), UniProt P31644+Q8N1C3); assay: Radioligand binding assay, competition for [3H]RO7239181, γ1-containing GABAA subtypes
Procedure: The affinity of compounds at GABAA γ1 subunit-containing receptors was measured by competition for [^3H]RO7239181 (67.3 Ci/mmol; Roche) binding to membranes from HEK293F cells (ThermoFisher R79007) expressing human (transiently transfected) receptors of composition α5β2γ1, α2β2γ1, α1β2γ1. For better protein expression of the α2 subunit-containing receptors, the 28 amino acid long signal peptide (Met1 to Ala28) of the human GABAA α2 subunit was substituted by the 31 amino acid long signal peptide (Met1 to Ser31) of human GABAA α5 subunit.
(§1) Harvested pellets from HEK293F cells expressing the different GABAA receptor subtypes were resuspended in Mannitol Buffer pH 7.2-7.4 (Mannitol 0.29 M, Triethylamine 10 mM, Acetic acid 10 mM, EDTA 1 mM plus protease inhibitors (20 tablets Complete, Roche Diagnostics Cat. No. 05 056 489 001 per liter)), washed two times and then resuspended at 1:10 to 1:15 dilution in the same buffer. Cell disruption was performed by stirring the suspension in a Parr vessel #4637 at 435 psi for 15 minutes, and then the suspensions were centrifuged at 1000×g for 15 minutes at 4° C. (Beckman Avanti J-HC; rotor JS-4.2). The supernatant (S1) was transferred in a 21 Schott flask and the pellet (P1) was resuspended with Mannitol Buffer up to 175 ml. The resuspended pellet was transferred into a 250 ml Corning centrifugal beaker and centrifuged at 1500×g for 10 minutes at 4° C. (Beckman Avanti J-HC; rotor JS-4.2). The supernatant (S1) was then transferred in the 21 Schott flask and the pellet was discarded. The supernatants (S1) were centrifuged in 500 ml Beckman polypropylene centrifugal beaker at 15'000×g for 30 minutes at 4° C. (Beckman Avanti J-20 XP; rotor JLA-10.500). The pellet (P2) was resuspended with Mannitol Buffer 1:1 and frozen at −80° C. The supernatant (S2) was centrifuged in 100 ml Beckman polypropylene centrifugal tubes at 48000×g for 50 minutes at 4° C. (Beckman Avanti J-20 XP; rotor JA-18). The supernatant (S3) was discarded and the pellet (P3) was resuspended with 1:1 Mannitol Buffer. The P2 and P3 protein concentration was determined with the BIORAD Standard assay method with bovine serum albumin as standard and measured on the NANO-Drop 1000. The membrane suspension was aliquots (500 μl per tube) and stored at −80° C. until required.
(§2) Membrane homogenates were resuspended and polytronised (Polytron PT1200E Kinematica AG) in Potassium Phosphate 10 mM, KCl 100 mM binding buffer at pH 7.4 to a final assay concentration determined with a previous experiment.
Radioligand binding assays were carried out in a volume of 200 μL (96-well plates) which contained 100 μL of cell membranes, [^3H]RO7239181 at a concentration of 1.5 nM (α5β2γ1) or 20-30 nM (α1β2γ1, α2β2γ1) and the test compound in the range of [0.3-10000]×10^−9 M. Nonspecific binding was defined by 10×10^−6 (α5β2γ1) and 30×10^−6 M RO7239181 and typically represented less than 5% (α5β2γ1) and less than 20% (α1β2γ1, α2β2γ1) of the total binding. Assays were incubated to equilibrium for 1 hour at 4° C. and then, membranes were filtered onto unifilter (96-well white microplate with bonded GF/C filters preincubated 20-50 minutes in 0.3% Polyethylenimine) with a Filtermate 196 harvester (Packard BioScience) and washed 4 times with cold Potassium Phosphate 10 mM pH 7.4, KCl 100 mM binding buffer. After anhydrousing, filter-retained radioactivity was detected by liquid scintillation counting. Ki values were calculated using Excel-Fit (Microsoft) and are the means of two determinations.

[2] = biological target: human GABAA α1β3γ2 receptor (Homo sapiens (Human), UniProt P14867+P18507); assay: Radioligand binding assay, competition for [3H]Flumazenil, γ2-containing GABAA subtypes; settings: for γ2/γ1 Selectivity Ratio: Ki α1β3γ2 (nM)/Ki α2β2γ1 (nM); for LogSel: Log[Ki α1β3γ2 (nM)/Ki α2β2γ1 (nM)]
Procedure: The affinity of compounds at GABAA γ2 subunit-containing receptors was measured by competition for [^3H]Flumazenil (81.1 Ci/mmol; Roche) binding to HEK293F cells expressing human (transiently transfected) receptors of composition α1β3γ2.
Harvested pellets from HEK293F cells expressing the different GABAA γ2 receptor subtypes were resuspended in Mannitol Buffer pH 7,2-7,4 and processed as described above for the cells expressing the GABAA γ1 subunit-containing receptors.
Assays were incubated to equilibrium for 1 hour at 4° C. and harvested onto GF/C uni-filters (Packard) by filtration using a Packard harvester and washing with ice-cold wash buffer (50 mM Tris; pH 7.5). After anhydrousing, filter-retained radioactivity was detected by liquid scintillation counting. Ki values were calculated using Excel-Fit (Microsoft) and are the means of two determinations.

[3] = biological target: human GABAA α2β2γ1 receptor (Homo sapiens (Human), UniProt P47869+Q8N1C3); assay: Radioligand binding assay, competition for [3H]RO7239181, γ1-containing GABAA subtypes
Procedure: The affinity of compounds at GABAA γ1 subunit-containing receptors was measured by competition for [^3H]RO7239181 (67.3 Ci/mmol; Roche) binding to membranes from HEK293F cells (ThermoFisher R79007) expressing human (transiently transfected) receptors of composition α5β2γ1, α2β2γ1, α1β2γ1.
as §1, §2
Assays were incubated to equilibrium for 1 hour at 4° C. and then, membranes were filtered onto unifilter (96-well white microplate with bonded GF/C filters preincubated 20-50 minutes in 0.3% Polyethylenimine) with a Filtermate 196 harvester (Packard BioScience) and washed 4 times with cold Potassium Phosphate 10 mM pH 7.4, KCl 100 mM binding buffer. After anhydrousing, filter-retained radioactivity was detected by liquid scintillation counting. Ki values were calculated using Excel-Fit (Microsoft) and are the means of two determinations.

[4] = biological target: h-GABA-A α2β2γ1 (Homo sapiens (Human), UniProt P47869+Q8N1C3); assay: Two-electrode voltage clamp electrophysiology in Xenopus oocytes expressing GABAA receptors; assay type: cell-based; settings: α2β2γ1 GABAA receptor subtype expressing oocytes, reference PAMs
Procedure: Xenopus Oocytes Preparation Xenopus laevis oocytes at maturation stages V-VI were used for the expression of cloned mRNA encoding GABAA receptor subunits. Oocytes ready for RNA micro-injection were bought from Ecocyte, Castrop-Rauxel, Germany and stored in modified Barth's medium (composition in mM: NaCl 88, KCl 1, NaHCO3 2.4, HEPES 10, MgSO4 0.82, CaNO3 0.33, CaCl2 0.33, pH=7.5) at 20° C. until the experiment.
Oocytes were plated in 96-well plates for microinjection using the Roboinject automated instrument (MultiChannelSystems, Reutlingen, Germany). Approximately 50 nL of an aqueous solution containing the RNA transcripts for the subunits of the desired GABAA receptor subtype was injected into each oocyte. […] Oocytes were kept in modified Barth's medium (composition in mM: NaCl 88, KCl 1, NaHCO3 […], HEPES 10, MgSO4 0.82, CaNO3 0.33, CaCl2 0.33, pH=7.5) at 20° C. until the experiment.
Electrophysiological experiments were performed using the Roboocyte instrument (MultiChannelSystems, Reutlingen, Germany) on days 3 to 5 after the micro-injection of mRNA. During the experiment the oocytes were constantly superfused by a solution containing (in mM) NaCl 90, KCl 1, HEPES 5, MgCl2 1, CaCl2 1 (pH 7.4). Oocytes were impaled by two glass microelectrodes (resistance: 0.5-0.8 MQ) which were filled with a solution containing KCl 1M+K-acetate 1.5 M and voltage-clamped to −80 mV. The recordings were performed at room temperature using the Roboocyte two-electrode voltage clamp system (Multichannelsystem). After an initial equilibration period of 1.5 min GABA was added for 1.5 min at a concentration evoking approximately 20% of a maximal current response (EC20). After another rest interval of 2.5 min GABA was again added evoking a response of similar amplitude and shape. […] Current traces were recorded at a digitization rate of 10 Hz during and shortly before and after the GABA application.
Each compound and concentration was tested on at least 3 oocytes. Different oocytes were used for different compound concentrations.
For the analysis, the digitized current traces of the first and second GABA response were superimposed and, if necessary, rescaled to equal maximal amplitudes. The ratio between the two responses during the time interval of test compound application was calculated point by point. The extremum of the resulting “ratio trace” was taken as the efficacy (“Fold increase”) of the compound expressed as “% modulation of GABA EC20” (100*(Fold increase−1)).

[5] = Ki h-GABAA α2β2γ1, membranes of HEK293F cells, [3H]RO7239181 20-30 nM, Table 1
[6] = Ki h-GABAA α2β2γ1, membranes of HEK293F cells, [3H]RO7239181 20-30 nM, Table 2
[7] = HEK293F cells, [3H]Flumazenil 1 nM, Table 1, read-out: Ki h-GABAA α1β3γ2

Cc1nnc2n1-c1sc3c(c1C(c1c(F)cccc1F)=N[C@H]2C)COCC[C@@H]3F (single isomer, unassigned) [Example 55]
Ki [1]: 9 nM
Ki [2]: 2690 nM
γ2/γ1 Selectivity Ratio ([2]; Table 1): 56.2
LogSel ([2]; Table 1): 1.75
Ki [3, 5]: 47.8 nM
Ki [3, 6]: 47.8 nM

Cc1nnc2n1-c1sc3c(c1C(c1c(F)cccc1F)=N[C@H]2C)COCC[C@H]3F [Example 54, (7S,16R)-9-(2,6-difluorophenyl)-16-fluoro-3,7-dimethyl-13-oxa-18-thia-2,4,5,8-tetrazatetracyclo[8.8.0.02,6.011,17]octadeca-1(10),3,5,8,11(17)-pentaene]
Ki [1]: 9.1 nM
Ki [2]: 5080 nM
γ2/γ1 Selectivity Ratio ([2]; Table 1): 141.9
Ki [3, 5]: 35.8 nM
Ki [3, 6]: 35.8 nM

C[C@@H]1N=C(c2c(F)cccc2F)c2c(sc3c2COCCO3)-n2nc(C(=O)NCC3(O)CC3)nc21 [Example 60, (7S)-9-(2,6-difluorophenyl)-N-[(1-hydroxycyclopropyl)methyl]-7-methyl-13,16-dioxa-18-thia-2,3,5,8-tetrazatetracyclo[8.8.0.02,6.011,17]octadeca-1(10),3,5,8,11(17)-pentaene-4-carboxamide]
Ki [1]: 2.86 nM
Ki [2, 7]: 3690 nM
γ2/γ1 Selectivity Ratio ([2]; Table 1): 157.4
LogSel ([2]; Table 1): 2.20
Ki [3, 5]: 23.4 nM
Ki [3, 6]: 23.4 nM

Cc1nnc2n1-c1ccc(Cl)cc1C(c1ccccc1)=NC2 [Alprazolam, reference compound]
LogSel ([2]; Table 3): −2.3

Cc1ncc2n1-c1ccc(Cl)cc1C(c1ccccc1F)=NC2 [Midazolam, reference compound]
LogSel ([2]; Table 3): −2.2
potentiation of the GABA-induced current [4]: ~60%

Clc1ccc2c(c1)C(c1ccccc1)=NCc1nncn1-2 [Estazolam, reference compound]
γ2/γ1 Selectivity Ratio ([2]; Table 3): 0.0089
LogSel ([2]; Table 3): −2.0

[2H]C1([2H])OCc2c(sc3c2C(c2c(F)cccc2F)=N[C@@H](C)c2nc(C(=O)N4CC(OCC)C4)nn2-3)OC1([2H])[2H] [Example 32, (3-Ethoxyazetidin-1-yl)-[(7S)-14,14,15,15-tetradeuterio-9-(2,6-difluorophenyl)-7-methyl-13,16-dioxa-18-thia-2,3,5,8-tetrazatetracyclo[8.8.0.02,6.011,17]octadeca-1(10),3,5,8,11(17)-pentaen-4-yl]methanone]
Ki [1]: 1.88 nM
Ki [2, 7]: 5780 nM
γ2/γ1 Selectivity Ratio ([2]; Table 1): 747.9
LogSel ([2]; Table 1): 2.87
Ki [3, 5]: 7.7 nM
Ki [3, 6]: 7.7 nM

Cc1nnc2n1-c1sc3c(c1C(c1c(F)cccc1F)=N[C@H]2C)CCCCC3F (single isomer, unassigned) [Example 10]
Ki [1]: 2.72 nM
Ki [2]: 1160 nM
γ2/γ1 Selectivity Ratio ([2]; Table 1): 63.6
LogSel ([2]; Table 1): 1.80
Ki [3, 5]: 18.2 nM
Ki [3, 6]: 18.2 nM

CN1C(=O)CN=C(c2ccccc2F)c2cc([N+](=O)[O-])ccc21 [Flunitrazepam, reference compound]
potentiation of the GABA-induced current [4]: ~60%

C[C@@H]1N=C(c2c(F)cccc2F)c2c(sc3c2CCCCC3)-n2c1n[nH]c2=O [Example 6, (7S)-9-(2,6-difluorophenyl)-7-methyl-18-thia-2,4,5,8-tetrazatetracyclo[8.8.0.02,6.011,17]octadeca-1(10),5,8,11(17)-tetraen-3-one]
Ki [1]: 3.69 nM
Ki [2]: 2440 nM
γ2/γ1 Selectivity Ratio ([2]; Table 1): 65.3
LogSel ([2]; Table 1): 1.82
Ki [3, 5]: 37.3 nM
Ki [3, 6]: 37.3 nM

Cc1nnc2n1-c1ccc(Cl)cc1C(c1ccccc1Cl)=NC2 [Triazolam, reference compound]
LogSel ([2]; Table 3): −1.5
potentiation of the GABA-induced current [4]: ~60%

Cc1nnc2n1-c1sc3c(c1C(c1c(F)cccc1F)=N[C@H]2C)CCCC3 [RE-B, (7S)-9-(2,6-difluorophenyl)-3,7-dimethyl-17-thia-2,4,5,8-tetrazatetracyclo[8.7.0.02,6.011,16]heptadeca-1(10),3,5,8,11(16)-pentaene, reference compound]
Ki [2]: 21.6 nM
γ2/γ1 Selectivity Ratio ([2]; Table 3): 2.68
Ki ([3]; Ki h-GABAA α2β2γ1, Table 3, reference compounds and examples): 57.7 nM
